Measurements from patent US9024022B2, “Substrates of O6-alkylguanine-DNA alkyltransferase and mutants thereof” (Cis Bio International, priority 2008, dated 2015).

Experiments:
[1] = molecular target: T1, SNAP-tag-ST26 enzyme (SNAP-tag-mGluR2 fusion protein) (Homo sapiens, UniProt P16455, A127T/C150S/C62A/G131K/G132T/K125A/M134L/N157G/R128A/R135S/S159E); test: Enzymatic reactivity test in a cell model, SNAP-tag-mGluR2 expressed by COS 7 cells; format: cell-based; details: living COS 7 cells, labeling 1 h at 37° C., read-out: half saturation concentration of the enzyme
T1 construct: expressed in transfected cells; host or cells: COS 7 cells, transient electroporation
T1 sequence (P16455 1-182 C62A/K125A/A127T/R128A/G131K/G132T/M134L/R135S/C150S/N157G/S159E limits assumed): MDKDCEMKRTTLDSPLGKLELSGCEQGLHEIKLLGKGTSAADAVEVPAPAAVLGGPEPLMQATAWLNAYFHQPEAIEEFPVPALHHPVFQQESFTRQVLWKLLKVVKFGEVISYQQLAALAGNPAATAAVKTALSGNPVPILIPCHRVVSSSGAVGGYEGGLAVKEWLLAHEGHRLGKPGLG
Protocol: This procedure makes it possible to test the reactivity of substrates according to the invention with an AGT expressed by COS 7 cells in the form of a fusion protein with the type 2 glutamate transmembrane receptor (mGluR2).
Various mutants of AGT were analyzed in this study: SNAP-tag-ST26 or CLIP-tag from Covalys or the N-AGT mutant described by Gronemeyer et al. (Protein Engineering, Design & Selection, Vol. 19, No. 7, pp. 309-316, 2006).
• SNAP-tag-mGluR2 plasmid, prepared from the pSET-26b plasmid according to the protocol of the commercial kit (SNAP express pSTE7-26b kit, Covalys Biosciences) • Invitrogen pcdna3.1 plasmid. This plasmid is used as a negative control; the cells transfected with this plasmid are denoted “mock” and make it possible to determine the level of non-specific labeling. Protocol:
The transient transfection of the cells is carried out by electroporation using a Biorad electroporator: 10 million cells are transfected by 1 μg SNAP-tag-mGluR2+3 μg pcdna3.1 in a final volume of 300 μl. The electroporation parameters are: 280 V & 1000 μF.
The cells are then seeded at 150 000 cells per well in Greiner plates (opaque black bottom) previously incubated with polyornithine for 30 minutes at 37° C.
The cells are cultured in the DMEM+Phenol Red+10% FCS+penicillin/streptomycin+non-essential amino acids medium at 37° C. and 5% CO2. After 24 h of expression, a first washing operation is carried out with 100 μl of this same medium.
The labeling of the AGT-mGluR2 fusion protein takes place in 100 μl of complete medium with increasing concentrations of BG-fluorophore or BG-L1-A-L2-fluorophore according to the invention for 1 h at 37° C. Before the reading, 4 washing operations are carried out with 100 μl of Tris-Krebs.
For the substrates bearing fluorophores ATTO647 (example 2), DY647 (examples 1 and 5) and fluorescein-5-EX (example 3), the reading is carried out in 100 μl of Tris-Krebs in direct fluorescence at 682 nm on a Rubystar machine, and at 520 nm for those bearing fluorescein-5-EX (example 3).
For the substrates bearing the terbium KR complex (examples 4 and 6), the reading is taken in 100 μl of Tris-Krebs in time-resolved fluorescence at 620 nm on a Rubystar machine.

[2] = molecular target: T2, SNAP-tag enzyme (GST-SNAP-tag-FKBP fusion protein) (Homo sapiens, UniProt P16455, A127T/C150S/C62A/G131K/G132T/K125A/M134L/N157G/R128A/R135S/S159E); test: Enzymatic reactivity test in an in vitro model (TR-FRET labeling of GST-SNAPtag-FKBP recombinant protein); format: biochemical; details: for reactivity of the substrate with the SNAP-tag enzyme: in vitro protein labeling, compared with reference substrate
T2 construct: GST (N)
T2 sequence (P16455 1-182 C62A/K125A/A127T/R128A/G131K/G132T/M134L/R135S/C150S/N157G/S159E limits assumed): T1 sequence (P16455 1-182 C62A/K125A/A127T/R128A/G131K/G132T/M134L/R135S/C150S/N157G/S159E limits assumed)
Description: The test of reactivity of the substrates according to the invention with the SNAP-tag enzyme is based on an in vitro test of labeling a recombinant protein.
In this case, use is made of the FRB and FKBP proteins that interact in the presence of rapamycin.
The FKBP protein is labeled by a first fluorophore via SNAP-tag technology: for this, a GST-SNAPtag-FKBP fusion protein is produced from the pSET7-26b plasmid according to the protocol of the commercial kit (SNAP express pSET7-26b kit, Covalys Biosciences AG, Witterswil/Switzerland). This fusion protein is then brought into contact with the first fluorophore conjugated to a reference BG derivative or to a BG derivative according to the invention.
The FRB protein is itself coupled via conventional conjugation techniques with a donor fluorescent compound (europium TBP cryptate (KTBP), Cisbio Bioassay) or acceptor fluorescent compound (DY647, Dyomics) depending on the case, following the protocols provided with these products.
The table below explains the nature of the pairs of fluorophores in each of the following examples 1 to 4:
In each example, 2 nmol of FRB recombinant protein labeled with a europium cryptate or DY647 (2nd fluorophore) are co-incubated at ambient temperature with 2 nmol of GST-SNAP-tag-FKBP recombinant protein and increasing concentrations of BG labeled by the first fluorophore (BG-fluorophore of the prior art or BG-L1-A-L2-fluorophore according to the invention).
The fluorescence readings are taken at 620 nm and at 665 nm on a RubyStar machine (BMG laboratory) after an excitation at 337 nm. The readings are carried out before and after induction of the FRB/FKBP protein interaction by 100 nM of rapamycin. This interaction is expressed by the emission of a TR-FRET signal. Since the SNAP-tag enzyme can only attach to a single fluorescent group, the increase in the TR-FRET signal is directly proportional to the percentage of labeled proteins in the reaction medium. This in vitro model makes it possible to establish enzymatic labeling kinetics as a function of the excess of substrate involved in the reaction.
The results are indicated either as d665 or as % labeling according to the following formulae: d 665=(signal at 665 nm with the GST-ST-FKBP protein)−(signal at 665 nm without the GST-ST-FKBP protein).
The percentage of labeling is obtained by comparison with the signal corresponding to the maximum labeling that is obtained after 18 hours of incubation. % labeling=(d665 at t measured/d665 18 h of incubation)×100. Procedure of the Enzymatic Reactivity Test in a Cell Model

[3] = molecular target: T3, CLIP-tag enzyme (CLIPtag-mGluR2 fusion protein) (Homo sapiens, UniProt P16455, K32I/L33F/M60I/C62A/Y114E/Q115S/Q116H/A121V/K125A/A127T/R128A/G131N/G132T/M134L/R135D/C150Q/S151G/S152D/G153S/A154D/N157P/S159L); test: Cell model with CLIPtag-mGluR2 and SNAPtag-mGluR2 cotransfection, TR-FRET at 665 nm; format: cell-based; details: cells incubated with 300 nM of BG-methylbenzamide-DY647; TR-FRET 665 nm; read-out: half saturation concentration of CLIPtag
T3 construct: The co-expressed SNAPtag-mGluR2 is a separate chain that carries the FRET partner dye
T3 sequence (P16455 1-207 K32I/L33F/M60I/C62A/Y114E/Q115S/Q116H/A121V/K125A/A127T/R128A/G131N/G132T/M134L/R135D/C150Q/S151G/S152D/G153S/A154D/N157P/S159L): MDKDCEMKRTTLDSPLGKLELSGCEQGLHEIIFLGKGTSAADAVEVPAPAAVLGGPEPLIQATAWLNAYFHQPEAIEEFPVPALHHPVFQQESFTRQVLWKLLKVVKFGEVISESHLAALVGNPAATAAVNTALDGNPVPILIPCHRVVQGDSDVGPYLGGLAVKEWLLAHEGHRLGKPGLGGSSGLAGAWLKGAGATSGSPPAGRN
Protocol: The cell model used in this example is different from that used in the preceding examples:
The cells are either cotransfected with a plasmid coding for the fusion protein CLIPtag-mGluR2 and another plasmid coding for the fusion protein SNAPtag-mGluR2, or transfected with a single plasmid coding for the fusion protein SNAPtag-mGluR2.
Each cell population is incubated in the presence of 300 nM of BG-methylbenzamide-DY647 and increasing concentrations of reference substrates (BC-Tb(KR)) or of a substrate according to the invention (BC-methylbenzamide-Tb(KR)). The fluorescence is measured at 665 nm in TR-FRET mode on a Rubystar machine and the signal measured is representative of a transfer of energy following the dimerization of two monomers of mGluR2 labeled respectively by DY647 and Tb(KR).
This example is carried out in the same way as example 7 but the cells are incubated in the presence of 300 nM of BG-methylbenzamide-Tb(KR) and increasing concentrations of reference substrate (BC-DY647) or of substrate according to the invention (BC-methylbenzamide-DY647), the formulae of which are below: […]

Atto465-BG [BG-Atto465, reference compound]
EC50 [1]: 1980 nM

DY647-aminomethylnicotinamide-benzylguanine [BG-aminomethylnicotinamide-DY647]
percentage of labeling of the SNAP-tag enzyme compared with the reference substrate ([2]; in vitro, after 30 min of incubation, regardless of the concentration of substrate): much better

DY647-cis-cyclohexane-benzylguanine [BG-cis-cyclohexane-DY647]
percentage of enzyme labeled compared with the reference substrate ([2]; in vitro, after 1 h of incubation, regardless of the substrate concentration): much better

Tb(KR)-aminomethylnicotinamide-benzylguanine [BG-aminomethylnicotinamide-Tb(KR)]
reactivity of the substrate with the SNAP-tag enzyme [2]: Results similar to those obtained with the compounds of the preceding examples

Tb(KR)-methylbenzamide-BC [BC-methylbenzamide-Tb(KR)]
EC50 [3]: 131 nM

Tb(KR)-methylbenzamide-BG [BG-methylbenzamide-Tb(KR)]
reactivity of the substrate with the SNAP-tag enzyme [2]: much better reactivity
EC50 [1]: 15.4 nM

benzylcytosine-Tb(KR) [BC-Tb(KR), reference compound]
EC50 [3]: 820 nM

benzylguanine-Tb(KR) [BG-Tb(KR), reference compound]
EC50 [1]: 60 nM
